Experimental data as given in patent EP4470536A1, “COMPOUND FOR USE IN TREATING FIBRODYSPLASIA OSSIFICANS PROGRESSIVA (FOP)” (Queen's University At Kingston, priority 2023, dated 2024).

Experiments:
CYP26A1 = target: T1, CYP26A1 (Homo sapiens, UniProt O43174); assay: HeLa cell-based inhibitor assay (HeLa-CYP26A1), inhibition of all trans-RA metabolism; conditions: CYP26A1 cells, highest concentration tested (10 µM), Figure 2, read-out: percentage inhibition
T1 construct: expressed in transfected cells; host or cells: HeLa (stably transfected, hygromycin selection)
T1 sequence (O43174 1-497): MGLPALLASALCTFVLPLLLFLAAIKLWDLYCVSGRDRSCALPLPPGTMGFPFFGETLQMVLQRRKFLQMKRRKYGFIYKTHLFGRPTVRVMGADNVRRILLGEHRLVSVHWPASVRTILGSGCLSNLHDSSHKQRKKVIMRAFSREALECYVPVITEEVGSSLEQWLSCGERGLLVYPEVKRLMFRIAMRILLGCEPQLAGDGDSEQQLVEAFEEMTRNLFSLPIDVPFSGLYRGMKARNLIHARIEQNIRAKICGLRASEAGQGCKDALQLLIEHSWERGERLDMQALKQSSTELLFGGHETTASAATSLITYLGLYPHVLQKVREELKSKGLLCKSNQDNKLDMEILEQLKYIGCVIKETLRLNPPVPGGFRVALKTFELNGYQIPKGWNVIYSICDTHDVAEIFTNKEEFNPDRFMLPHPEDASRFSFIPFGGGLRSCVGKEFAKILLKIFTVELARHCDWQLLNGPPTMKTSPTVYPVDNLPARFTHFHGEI
Procedure: CYP26A1 or CYP26B1 cDNA stably transfected HeLa cells were maintained in Minimum Essential Medium (MEM) containing 10% fetal bovine serum (FBS), 1X antibiotic/antimycotic cocktail, and […] hygromycin. Exponentially growing cells were harvested by incubation in trypsin. Cells were then collected and re-plated in 48-well culture plates at 1.5×10^5 (CYP26A1) or 1.5×10^4 (CYP26B1) cells in 0.2 mL of culture medium containing 0.04µCi [^3H]-RA (retinoic acid) in the presence or absence of increasing concentrations of a test compound. The test compound was diluted in dimethyl sulfoxide (DMSO) and then added in duplicate to wells to 0.01 nM, 0.1 nM, 1 nM, 10 nM, 100 nM, 1 µM, and 10 µM final concentrations. Cells were incubated for 3 hours at 37 °C. Retinoids were then extracted using the procedure of Bligh, et al., (1959), Canadian Journal of Biochemistry 37, 911-917, which was modified by using dichloromethane instead of chloroform. Each sample's water-soluble radioactivity level was quantified using a β-scintillation counter (using Ecolume scintillation fluid, available from MP Biomedicals of Solon, OH, USA). IC50 values represented the concentration of inhibitor required to inhibit all trans-RA metabolism by 50%, and were derived from log transformed data.

ectopic bone formation = assay: Genetic mouse model of FOP, pinch injury-induced ectopic bone formation, micro-CT; type: in vivo, Acvr1^(cR206H/+);Pdgfra-Cre+ mice; conditions: for Mean ectopic bone volume D14 (mm^3) / Mean ectopic bone volume D14 [percent change from vehicle]: day 14; for Mean ectopic bone volume D22 (mm^3) / Mean ectopic bone volume D22 [percent change from vehicle]: day 22
Excerpt: Acvr1^(cR206H/+) mice were obtained from the International Fibrodysplasia Ossificans Progressiva Association (IFOPA, North Kansas City, MO, USA). These animals harbour a Cre recombinase-inducible Acvr1 transgenic allele, which causes a switch from wild-type mouse ACVR1 protein expression to that of a chimeric mouse/human protein containing the R206H mutation seen in >95% of FOP patients. These animals were intercrossed with Pdgfra-Cre expressing mice (C57BL/6-Tg(PDGFRA-cre)1Clc/J mice, available through The Jackson Laboratory, Bar Harbor, ME, USA) which activates Cre recombination in fibro-adipogenic precursors, currently believed to be the cells of origin for FOP (Lees-Shepard, J.B., et al (2018) Nat Commun 9, 471.). Resulting study animals (ACVR1^(R206H/+);Pdgfra-Cre+) are susceptible to injury-induced ectopic bone formation. These animals were subjected to a bilateral gastrocnemius pinch procedure under anaesthesia, whereby a Halsted-mosquito hemostat (product#13008-12, Fine Science Tools Inc., North Vancouver, BC, Canada) is used to compress the gastrocnemius muscle, at its widest part, to approximately 2mm for 5s, and then released. This injury elicits robust ectopic bone formation within 10-14 days (for description of procedure see, Lyu, H., et al. (2021). Biomedicines 9(6).). […] Micro-CT imaging was performed on days 14 (under anaesthesia) and at study termination (day 22), as outlined above in Example 7. Sites of ectopic bone formation in the area of the injury were volumetrically quantified using Class stratification in Imalytics Preclinical software (version 3.0.2.3, Gremse-IT GmbH, Aachen, Germany) from DICOM renderings. Using this model, the utility of compound 1 in inhibiting bone formation in a genetic mouse model of FOP was illustrated (see Figure 11 and Table 3 below). Table 3. Effect of different doses of compound 1 on mean ectopic bone volume at 14 and 22 days following initiation of treatment

**Q.** Which inhibition at 10 µM (CYP26A1) does the source give for `CC(C)(C)c1cccc(-c2cc3cc(/C=C/C(=O)O)ccc3[nH]2)c1` [Compound 1, (E)-3-(2-(3-(tert-butyl)phenyl)-1H-indol-5-yl)acrylic acid] here?
**A.** 33%

**Q.** What about the “Mean ectopic bone volume D14 (mm^3)” value (ectopic bone formation; 2mg/kg BID) of the same molecule?
**A.** 2.92 ± 3.76 mm^3

**Q.** And the “Mean ectopic bone volume D14 [percent change from vehicle]” value (ectopic bone formation; 2mg/kg BID)?
**A.** -76.9%

**Q.** What about the “Mean ectopic bone volume D22 (mm^3)” value (ectopic bone formation; 2mg/kg BID) of the same molecule?
**A.** 2.62 ± 4.36 mm^3

**Q.** And the “Mean ectopic bone volume D22 [percent change from vehicle]” value (ectopic bone formation; 2mg/kg BID)?
**A.** -77.9%

**Q.** What about the “Mean ectopic bone volume D14 (mm^3)” value (ectopic bone formation; 4mg/kg BID) of the same molecule?
**A.** 0.20 ± 0.47 mm^3

**Q.** And the “Mean ectopic bone volume D14 [percent change from vehicle]” value (ectopic bone formation; 4mg/kg BID)?
**A.** -98.5%

**Q.** And the “Mean ectopic bone volume D22 (mm^3)” value (ectopic bone formation; 4mg/kg BID)?
**A.** 0.00 ± 0.00 mm^3

**Q.** What about the “Mean ectopic bone volume D22 [percent change from vehicle]” value (ectopic bone formation; 4mg/kg BID) of the same molecule?
**A.** -100%

**Q.** And the “Mean ectopic bone volume D14 (mm^3)” value (ectopic bone formation; 7.5mg/kg BID)?
**A.** 0.31 ± 0.45 mm^3

**Q.** What about the “Mean ectopic bone volume D14 [percent change from vehicle]” value (ectopic bone formation; 7.5mg/kg BID) of the same molecule?
**A.** -97.5%

**Q.** What about the “Mean ectopic bone volume D22 (mm^3)” value (ectopic bone formation; 7.5mg/kg BID) of the same molecule?
**A.** 0.07 ± 0.18 mm^3

**Q.** What about the “Mean ectopic bone volume D22 [percent change from vehicle]” value (ectopic bone formation; 7.5mg/kg BID) of the same molecule?
**A.** -99.4%

**Q.** What about the “Mean ectopic bone volume D14 (mm^3)” value (ectopic bone formation; 10mg/kg BID) of the same molecule?
**A.** 1.28 ± 2.23 mm^3

**Q.** What about the “Mean ectopic bone volume D14 [percent change from vehicle]” value (ectopic bone formation; 10mg/kg BID) of the same molecule?
**A.** -89.9%

**Q.** And the “Mean ectopic bone volume D22 (mm^3)” value (ectopic bone formation; 10mg/kg BID)?
**A.** 1.40 ± 2.65 mm^3

**Q.** What about the “Mean ectopic bone volume D22 [percent change from vehicle]” value (ectopic bone formation; 10mg/kg BID) of the same molecule?
**A.** -88.2%
